Source: patent US10444149B2, “Fluorescent compounds as sensing agents” (OHIO NORTHERN UNIVERSITY, priority 2016, dated 2019)
Marks after values point to notes of the source that are not given here.

Tests used:
[1] = Peak absorption wavelength, peak emission wavelength and fluorescent quantum yield; assay type: physicochemical
Source text: Table 2 provides a peak absorption wavelength (λabs maximum), peak emission wavelength (λem maximum), a fluorescent quantum yield (ΦF), and a synthesis yield for the various compounds. The synthesis yield is based on the synthetic pathway illustrated in FIG. 1.

[2] = Emission spectrum on exposure to varying amounts of FeCl3; conditions: for total red-shift in peak emission wavelength: at saturation with Fe^3+
Method: Two substituted chromones (Compound 11 and Compound 20) were dissolved in methanol and exposed to varying amounts of FeCl3 (i.e., Fe^3+). FIG. 4 illustrates the shift in emission spectrum of Compound 11 with increasing amounts of Fe^3+ ions. With about 10 equivalents of Fe^3+ ions, the shift in emission spectrum is saturated, with a total of about a 30 nm red-shift in peak emission wavelength. FIG. 5 illustrates the shift in emission spectrum of Compound 20 with increasing amounts of Fe^3+ ions. With about 10 equivalents of Fe^3+ ions, the shift in emission spectrum is saturated, with a total of about a 50 nm red-shift in peak emission wavelength.
Compound 11 was dissolved in various solvents and then exposed to varying amounts of FeCl3 (i.e., Fe^3+).
(§1) Compound 11 was dissolved in methanol and then exposed to varying amounts of FeCl3 (i.e., Fe^3+) or (NH4)2Fe(SO4)2.6H2O (i.e., Fe^2+). […] Therefore, Compound 11 may be used to detect Fe^3+ while in the presence of Fe^2+.

[3] = Emission spectrum on exposure to varying amounts of (NH4)2Fe(SO4)2.6H2O; conditions: methanol; FIG. 6
Method: as §1

[4] = Emission spectrum on exposure to varying amounts of lead nitrate
Method: Compound 20 was dissolved in methanol and then exposed to varying amounts of […] (i.e., Pb^2+). […] Therefore, a kit, method, system, or the like may utilize a specific solvent system for detection of lead or other Ions. Alternatively, and especially where the metal ion concentration is unknown, a kit, method, system, or the like may utilize a series of solvent systems in parallel to determine a concentration of metal ions.
A 5 μM sample of Compound 25 in 3:1 tetrahydrofuran:methanol or 2:1 tetrahydrofuran:methanol was prepared and exposed to varying amounts of Pb(NO3)2 (i.e., Pb^2+) dissolved in deionized water.

Structure (SMILES) | ΦF ([1]; solvent dichloromethane) | λabs maximum ([1]; solvent dichloromethane) [nm] | λem maximum ([1]; solvent dichloromethane) [nm] | other results
COC(=O)C(C)(C)C1Oc2ccccc2C(=O)/C1=C\O (stereo not drawn) [Compound 5, (Z)-methyl 2-(3-(hydroxymethylene)-4-oxochroman-2-yl)-2-methylpropanoate] | 6* % | 362 | 446 | 
COC(=O)C(C)(C)C1Oc2ccc(F)cc2C(=O)/C1=C\O (stereo not drawn) [Compound 6, (Z)-methyl 2-(6-fluoro-3-(hydroxymethylene)-4-oxochroman-2-yl)-2-methylpropanoate] | 2* % | 364 | 486 | 
COC(=O)C(C)(C)C1Oc2ccccc2C(=O)/C1=C\NS(=O)(=O)c1ccc(C)cc1 (stereo not drawn) [Compound 15, (Z)-methyl 2-methyl-2-(3-((4-methylphenylsulfonamido)methy-lene)-4-oxochroman-2-yl)propanoate] | 37* % | 358 | 479 | 
COC(=O)C(C)(C)C1Oc2ccc(F)cc2C(=O)/C1=C\NS(=O)(=O)c1ccc(C)cc1 (stereo not drawn) [Compound 16, (Z)-methyl 2-(6-fluoro-3-((4-methylphenylsulfonamido)methy-lene)-4-oxochroman-2-yl)-2-methylpropanoate] | 33* % | 367 | 492 | 
COC(=O)C(C)(C)C1Oc2ccc(Cl)cc2C(=O)/C1=C\NS(=O)(=O)c1ccc(C)cc1 (stereo not drawn) [Compound 17, (Z)-methyl 2-(6-chloro-3-((4-methylphenylsulfonamido)methy-lene)-4-oxochroman-2-yl)-2-methylpropanoate] | 39* % | 367 | 483 | 
COC(=O)C(C)(C)C1Oc2ccc(C)cc2C(=O)/C1=C\NS(=O)(=O)c1ccc(C)cc1 (stereo not drawn) [Compound 19, (Z)-methyl 2-methyl-2-(6-methyl-3-((4-methylphenylsulfonamido)methy-lene)-4-oxochroman-2-yl)propanoate] | 70* % | 367 | 492 | ΦF ([1]; solvent acetonitrile): 8** %; λabs maximum ([1]; solvent acetonitrile): 380 nm; λem maximum ([1]; solvent acetonitrile): 468 nm; ΦF ([1]; solvent cyclohexane): 27*** %; λabs maximum ([1]; solvent cyclohexane): 364 nm; λem maximum ([1]; solvent cyclohexane): 479 nm
CCc1ccc2c(c1)C(=O)/C(=C\NS(=O)(=O)c1ccc(C)cc1)C(C(C)(C)C(=O)OC)O2 (stereo not drawn) [Compound 20, (Z)-methyl 2-(6-ethyl-3-((4-methylphenylsulfonamido)methy-lene)-4-oxochroman-2-yl)-2-methylpropanoate] | 73* % | 370 | 490 | ΦF ([1]; solvent acetonitrile): 16** %; λabs maximum ([1]; solvent acetonitrile): 369 nm; λem maximum ([1]; solvent acetonitrile): 496 nm; ΦF ([1]; solvent cyclohexane): 30*** %; λabs maximum ([1]; solvent cyclohexane): 364 nm; λem maximum ([1]; solvent cyclohexane): 481 nm; red-shift in peak emission wavelength ([2]; 1:1 methanol:water as solvent): does not; amount of Fe^3+ ions at which the shift in emission spectrum is saturated ([2]; methanol): about 10 equivalents; total red-shift in peak emission wavelength ([2]; methanol): ~50 nm; amount of Pb^2+ at max shift in peak emission wavelength ([4]; 1:1 tetrahydrofuran:methanol): about 5 equivalents; amount of Pb^2+ at max shift in peak emission wavelength ([4]; 3:1 tetrahydrofuran:methanol): about 3 equivalents; shift in peak emission wavelength ([4]; THF alone): no appreciable shift in peak emission wavelength; amount of Pb^2+ at which the shift in peak emission wavelength maxes out ([4]; methanol): 10 equivalents; shift in peak emission wavelength at 1 equivalent Pb^2+ ([4]; methanol): no appreciable shift; shift in peak emission wavelength at 1 equivalent Pb^2+ ([4]; mixed tetrahydrofuran/methanol): appreciable shift
COC(=O)C(C)(C)C1Oc2ccccc2C(=O)/C1=C\NS(=O)(=O)c1ccc(OC)cc1 (stereo not drawn) [Compound 23, (Z)methyl-2-(3-(((4-methoxyphenyl)sulfonamido)methy-lene)-4-oxochroman-2-yl)-2-methylpropanoate] | 38* % | 358 | 479 | 
COC(=O)C(C)(C)C1Oc2ccc(C)cc2C(=O)/C1=C\NS(=O)(=O)c1ccc(OC)cc1 (stereo not drawn) [Compound 24, (Z)methyl-2-(3-(((4-methoxyphenyl)sulfonamido)methy-lene)-6-methyl-4-oxochroman-2-yl)-2-methylpropanoate] | 72* % | 367 | 492 | 
COC(=O)CC1Oc2ccc(OC)cc2C(=O)/C1=C\NS(=O)(=O)c1ccc(OC)cc1 (stereo not drawn) [Compound 26, (Z)-methyl-2-(6-methoxy-3-(((4-methoxyphenyl)sulfonamido)methy-lene)-4-oxochroman-2-yl)acetate] | 67* % | 386 | 529 | 

The next lines start with results.

ΦF ([1]; solvent dichloromethane) | λabs maximum ([1]; solvent dichloromethane) [nm] | λem maximum ([1]; solvent dichloromethane) [nm] | Structure (SMILES) | other results
20* % | 383 | 482 | COC(=O)C(C)(C)C1Oc2ccc(OC)cc2C(=O)/C1=C\O (stereo not drawn) [Compound 11, (Z)-methyl-2-(3-(hydroxymethylene)-6-methoxy-4-oxochroman-2-yl)-2-methylpropanoate] | red-shift in peak emission wavelength ([2]; 1:1 methanol:water as solvent): still exhibits a red-shift in peak emission wavelength; amount of Fe^3+ ions at which the shift in emission spectrum is saturated ([2]; methanol): about 10 equivalents; intensity change of peak emission with increasing metal ion concentration ([2]; methanol, FIG. 4): intensity decrease; shift of peak emission wavelength ([2]; methanol, FIG. 4): significant red-shift; total red-shift in peak emission wavelength ([2]; methanol): ~30 nm; red-shift in peak emission wavelength ([2]; polar aprotic solvents: tetrahydrofuran, acetonitrile, acetone): did not exhibit an appreciable red-shift; red-shift in peak emission wavelength ([2]; polar protic solvents: water, methanol, mixtures thereof): exhibited an appreciable red-shift; intensity change of peak emission with increasing metal ion concentration [3]: intensity decrease; shift of peak emission wavelength [3]: does not exhibit appreciable shift
3* % | 371 | 451 | COC(=O)C(C)(C)C1Oc2c(Br)cc(Br)cc2C(=O)/C1=C\O (stereo not drawn) [Compound 14, (Z)-methyl 2-(6,8-dibromo-3-(hydroxymethylene)-4-oxochroman-2-yl)-2-methylpropanoate] | 
34* % | 343 | 483 | COC(=O)C(C)(C)C1Oc2ccc(Br)cc2C(=O)/C1=C\NS(=O)(=O)c1ccc(C)cc1 (stereo not drawn) [Compound 18, (Z)-methyl 2-(6-bromo-3-((4-methylphenylsulfonamido)methy-lene)-4-oxochroman-2-yl)-2-methylpropanoate] | 
71* % | 368 | 490 | COC(=O)C(C)(C)C1Oc2ccc(C(C)C)cc2C(=O)/C1=C\NS(=O)(=O)c1ccc(C)cc1 (stereo not drawn) [Compound 21, (Z)methyl-2-(6-isopropyl-3-(((4-methylphenyl)sulfonamido)methy-lene)-4-oxochroman-2-yl)-2-methylpropanoate] | 
66* % | 390 | 529 | COC(=O)C(C)(C)C1Oc2ccc(OC)cc2C(=O)/C1=C\NS(=O)(=O)c1ccc(C)cc1 (stereo not drawn) [Compound 22, (Z)-methyl-2-(6-methoxy-3-(((4-methylphenyl)sulfonamido)methy-lene)-4-oxochroman-2-yl)-2-methylpropanoate] | 
